Experimental data reported in paper PMC3602015 (PLoS ONE, 2013).

Legend:
[1] = biological target: T1, human P-gp with 1236T-2677T-3435T genotype (Homo sapiens, UniProt P08183)
Experimental: (§1) For efflux assays, 1×10^5 cells were seeded on 96-well plates and cultured for 24 hours. […] After washed with warm PBS, cells were allowed to efflux rhodamine123 for 10 min at 37°C in the incubator. Samples (150 µl) were collected and transferred to 96-well black plates. Rhodamine123 concentrations were measured using a set of standards (from 62.5 nM to 8 µM) in HBSS analyzed by the SpectraMax Gemini XS microplate spectrofluorometer (Molecular Devices Co., Sunnyvale, CA, USA) with the excitation set at 485 nm and the emission set at 535 nm. The measured rhodamine123 concentrations were normalized to the total protein content in the cells. Total protein concentrations were measured by a microplate assay protocol (Dc protein assay reagent, Bio-Rad, Hercules, CA, USA), and bovine serum albumin was used as the standard. Each experiment was repeated at least three times across cell passages to ensure stability of transfection and consistency and reproducibility of the experiments.
(§2) For kinetic studies, kinetic parameters were estimated by nonlinear regression using Scientist v2.01 (MicroMath Scientific Software, Salt Lake City, UT, U.S.A.) according to the following equation: [drawing 6] Where V denoted the efflux rate; Vmax, the maximal efflux rate; Km, the Michaelis-Menten constant and C is the substrate concentration.

[2] = biological target: T2, human wild-type P-gp (ABCB1 1236C-2677G-3435C) (Homo sapiens, UniProt P08183, S893A)
Experimental: as §1, §2

[3] = biological target: T2, human wild-type P-gp (ABCB1 1236C-2677G-3435C); test: in vitro
Experimental: as §1, §2

[4] = biological target: T3, human P-gp with 1236T-2677A-3435T genotype (Homo sapiens, UniProt P08183, S893T); test: in vitro
T3 sequence (P08183 whole entry S893T): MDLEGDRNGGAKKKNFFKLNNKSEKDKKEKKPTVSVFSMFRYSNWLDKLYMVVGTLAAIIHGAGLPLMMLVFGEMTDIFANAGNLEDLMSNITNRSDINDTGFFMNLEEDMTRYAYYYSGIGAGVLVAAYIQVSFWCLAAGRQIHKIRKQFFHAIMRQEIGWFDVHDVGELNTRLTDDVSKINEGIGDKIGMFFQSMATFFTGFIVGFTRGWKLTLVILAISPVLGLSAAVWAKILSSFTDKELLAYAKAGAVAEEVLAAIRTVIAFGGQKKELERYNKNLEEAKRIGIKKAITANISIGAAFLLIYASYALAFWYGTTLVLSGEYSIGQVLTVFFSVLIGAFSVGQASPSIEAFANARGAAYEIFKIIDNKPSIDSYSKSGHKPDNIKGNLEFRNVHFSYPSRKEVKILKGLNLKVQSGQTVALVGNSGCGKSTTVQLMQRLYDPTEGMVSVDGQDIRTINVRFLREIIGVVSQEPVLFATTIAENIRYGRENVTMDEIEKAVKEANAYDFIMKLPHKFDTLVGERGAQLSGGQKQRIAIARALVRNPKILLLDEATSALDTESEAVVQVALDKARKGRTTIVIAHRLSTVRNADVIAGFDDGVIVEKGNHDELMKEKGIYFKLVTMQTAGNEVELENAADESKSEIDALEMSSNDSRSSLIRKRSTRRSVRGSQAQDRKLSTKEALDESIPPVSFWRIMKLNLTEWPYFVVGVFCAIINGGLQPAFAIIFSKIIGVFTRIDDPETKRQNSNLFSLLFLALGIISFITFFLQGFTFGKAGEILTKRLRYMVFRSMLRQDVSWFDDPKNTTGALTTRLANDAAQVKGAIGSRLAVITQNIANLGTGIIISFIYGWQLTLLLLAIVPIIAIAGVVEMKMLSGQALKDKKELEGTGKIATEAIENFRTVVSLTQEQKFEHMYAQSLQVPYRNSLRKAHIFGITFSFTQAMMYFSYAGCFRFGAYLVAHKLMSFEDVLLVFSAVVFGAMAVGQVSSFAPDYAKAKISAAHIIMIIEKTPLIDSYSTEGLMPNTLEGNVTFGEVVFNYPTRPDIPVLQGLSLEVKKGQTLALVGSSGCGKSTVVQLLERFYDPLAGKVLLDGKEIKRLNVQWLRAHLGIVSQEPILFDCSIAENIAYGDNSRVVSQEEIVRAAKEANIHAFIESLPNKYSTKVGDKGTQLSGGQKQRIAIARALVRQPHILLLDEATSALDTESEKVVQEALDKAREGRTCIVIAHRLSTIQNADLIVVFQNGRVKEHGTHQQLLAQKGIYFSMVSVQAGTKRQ
Experimental: as §1, §2

[5] = biological target: T1, human P-gp with 1236T-2677T-3435T genotype; test: in vitro
Experimental: as §1, §2

[6] = biological target: T3, human P-gp with 1236T-2677A-3435T genotype
Experimental: as §1, §2

[7] = cited from earlier work
Flp-In™-293 cells = test: Cytotoxicity assay (MTT); format: cell-based, human; conditions: methadone 0.5 to 40 µM; 48 hours
Experimental: Briefly, the cells were seeded into 24-well plates and cultured overnight. […] After incubation, the medium was removed and added fresh culture medium 200 µl containing 0.5 mg/ml MTT and then incubated at 37°C for 4 hours. After incubation, the medium was removed and 200 µl DMSO was added, and incubation for 30 minutes at room temperature. After incubation, 100 µl of solution was transferred to a 96-well plate and absorbance was measured using an ELISA plate reader (Molecular Devices, Sunnyvale, USA) at 570 nm with a reference wavelength of 650 nm.

[8] = biological target: T3, human P-gp with 1236T-2677A-3435T genotype; test: cell-based
Experimental: as §1, §2

[9] = biological target: T2, human wild-type P-gp (ABCB1 1236C-2677G-3435C); test: cell-based
Experimental: as §1, §2

[10] = biological target: T1, human P-gp with 1236T-2677T-3435T genotype; test: cell-based
Experimental: as §1, §2

T1 sequence (P08183 whole entry): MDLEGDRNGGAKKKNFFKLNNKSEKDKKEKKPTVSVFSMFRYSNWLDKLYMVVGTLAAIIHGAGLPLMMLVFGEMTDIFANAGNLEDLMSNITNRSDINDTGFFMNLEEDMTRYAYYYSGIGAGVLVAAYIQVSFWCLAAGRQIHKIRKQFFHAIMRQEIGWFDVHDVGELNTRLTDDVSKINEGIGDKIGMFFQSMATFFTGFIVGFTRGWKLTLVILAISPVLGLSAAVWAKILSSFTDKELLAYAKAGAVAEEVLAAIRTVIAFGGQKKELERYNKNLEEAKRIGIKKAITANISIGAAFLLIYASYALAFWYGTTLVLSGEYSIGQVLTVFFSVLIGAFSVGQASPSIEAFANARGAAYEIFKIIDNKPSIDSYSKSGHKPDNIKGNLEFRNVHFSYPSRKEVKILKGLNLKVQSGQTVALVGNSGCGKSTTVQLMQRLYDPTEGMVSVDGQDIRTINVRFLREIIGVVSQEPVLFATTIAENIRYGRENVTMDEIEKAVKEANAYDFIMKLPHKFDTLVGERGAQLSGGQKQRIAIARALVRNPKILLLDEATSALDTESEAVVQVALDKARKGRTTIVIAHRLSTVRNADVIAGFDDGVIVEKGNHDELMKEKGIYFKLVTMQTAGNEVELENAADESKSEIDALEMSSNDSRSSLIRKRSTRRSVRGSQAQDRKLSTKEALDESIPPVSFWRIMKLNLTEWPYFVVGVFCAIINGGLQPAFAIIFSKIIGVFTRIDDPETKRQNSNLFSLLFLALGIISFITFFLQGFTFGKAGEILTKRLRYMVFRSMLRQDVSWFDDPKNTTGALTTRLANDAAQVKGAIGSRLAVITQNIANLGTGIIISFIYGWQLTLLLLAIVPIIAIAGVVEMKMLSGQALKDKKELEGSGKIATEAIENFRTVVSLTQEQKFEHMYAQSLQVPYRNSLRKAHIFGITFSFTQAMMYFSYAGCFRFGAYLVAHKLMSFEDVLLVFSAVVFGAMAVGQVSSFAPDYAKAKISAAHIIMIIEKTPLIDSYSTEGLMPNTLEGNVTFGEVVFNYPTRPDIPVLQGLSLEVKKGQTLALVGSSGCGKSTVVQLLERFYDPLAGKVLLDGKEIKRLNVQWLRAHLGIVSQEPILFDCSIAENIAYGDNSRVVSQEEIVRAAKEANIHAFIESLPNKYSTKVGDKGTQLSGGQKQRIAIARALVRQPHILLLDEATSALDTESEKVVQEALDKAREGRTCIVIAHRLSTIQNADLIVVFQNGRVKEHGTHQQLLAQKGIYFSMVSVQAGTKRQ
T2 sequence (P08183 whole entry S893A): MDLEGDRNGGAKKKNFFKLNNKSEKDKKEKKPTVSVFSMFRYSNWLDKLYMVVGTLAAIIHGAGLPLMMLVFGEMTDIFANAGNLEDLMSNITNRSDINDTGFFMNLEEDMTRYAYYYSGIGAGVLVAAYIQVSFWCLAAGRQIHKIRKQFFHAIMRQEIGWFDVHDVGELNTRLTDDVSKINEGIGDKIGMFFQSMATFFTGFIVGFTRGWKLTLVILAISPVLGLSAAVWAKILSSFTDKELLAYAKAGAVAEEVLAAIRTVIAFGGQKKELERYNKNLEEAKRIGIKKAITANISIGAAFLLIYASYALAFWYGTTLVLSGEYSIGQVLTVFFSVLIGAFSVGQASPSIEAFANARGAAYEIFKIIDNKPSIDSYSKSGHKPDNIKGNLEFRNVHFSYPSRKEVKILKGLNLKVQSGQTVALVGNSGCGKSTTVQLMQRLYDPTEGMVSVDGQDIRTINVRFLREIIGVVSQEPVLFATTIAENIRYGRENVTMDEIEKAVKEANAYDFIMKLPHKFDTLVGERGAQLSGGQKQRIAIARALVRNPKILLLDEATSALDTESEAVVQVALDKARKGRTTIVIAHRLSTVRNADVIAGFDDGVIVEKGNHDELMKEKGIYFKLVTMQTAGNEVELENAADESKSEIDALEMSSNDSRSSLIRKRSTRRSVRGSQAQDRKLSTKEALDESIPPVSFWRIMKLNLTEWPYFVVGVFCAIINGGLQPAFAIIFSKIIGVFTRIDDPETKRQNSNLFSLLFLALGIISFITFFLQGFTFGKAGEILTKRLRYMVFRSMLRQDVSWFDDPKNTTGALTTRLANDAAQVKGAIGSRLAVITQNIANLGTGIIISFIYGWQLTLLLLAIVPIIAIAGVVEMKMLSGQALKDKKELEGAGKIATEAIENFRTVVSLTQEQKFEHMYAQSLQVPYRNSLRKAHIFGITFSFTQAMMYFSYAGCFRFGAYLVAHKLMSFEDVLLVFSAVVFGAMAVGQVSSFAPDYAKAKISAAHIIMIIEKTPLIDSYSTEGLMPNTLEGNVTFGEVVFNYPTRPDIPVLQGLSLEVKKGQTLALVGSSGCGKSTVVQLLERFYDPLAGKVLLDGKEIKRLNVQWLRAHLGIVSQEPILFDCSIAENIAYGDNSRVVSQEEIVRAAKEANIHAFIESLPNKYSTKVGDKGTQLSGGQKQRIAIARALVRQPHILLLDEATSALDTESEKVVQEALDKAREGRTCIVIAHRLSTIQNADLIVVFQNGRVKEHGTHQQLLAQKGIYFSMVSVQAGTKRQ

## COC(=O)c1ccccc1-c1c2ccc(=N)cc-2oc2cc(N)ccc12 [Rhodamine 123]
[1]
  Vmax of rhodamine 123 efflux: 8.29±0.89 nmole/mg protein/10 min
[2]
  non-specific first-order rate constant of rhodamine 123 efflux: 12.08±1.23 µL/mg protein/10 min
  non-specific transport as share of the total efflux: 2.9%
[3]
  Km at 10 min: 16.6 ± 3.01 µM
[4]
  Km at 10 min: 14.8 ± 1.72 µM
[5]
  Km at 10 min: 18.8 ± 2 µM
[6]
  Vmax of rhodamine 123 efflux: 7.34±0.63 nmole/mg protein/10 min

## CCC(=O)C(CC(C)N(C)C)(c1ccccc1)c1ccccc1 (stereo not drawn) [methadone]
[7]
  therapeutic range: 1 to 3 µM
Flp-In™-293 cells
  cell viability (MTT assay): did not affect
[8]
  IC50: 4.43 ± 1.1 µM
  Ki: 4.53 ± 1.17 µM
[9]
  IC50: 2.17 ± 0.1 µM
  Ki: 2.77 ± 0.15 µM
[10]
  IC50: 2.97 ± 0.09 µM
  Ki: 3.92 ± 0.07 µM
